Test results reported in patent US7655395B2, “Isolation and use of ryanodine receptors” (E.I. du Pont de Nemours and Company, priority 2002, dated 2010).

Legend:
[1] = test system: native cockroach ryanodine receptors (in embryonic neuronal cells); experiment: Calcium release assay, calcium imaging of embryonic cockroach neuronal cells (Fluo-4); type: cell-based, Periplaneta americana
Source text: Embryonic neuronal cultures of the American cockroach Periplaneta americana were established, with minor modifications, following the method of Beadle and Lees (1988) (in Cell Culture Approaches to Invertebrate Neuroscience, Academic Press, New York, pp 123-127). Briefly, 26-27-day old oothecae were collected, surface-sterilized and cut open along a line one-third of the distance below the dorsal midline. The heads were removed and placed in Schneider's Drosophila medium (Invitrogen Life Technologies™, Carlsbad, Calif.). Using fine forceps 40 brains were individually removed and placed in a small glass vial containing 700 μl of ‘5+4’ medium (‘5+4’ medium contained 5 parts Schneider's Drosophila medium plus 4 parts roach Basal Medium Eagle, with Earle's salts (BME, Sigma™, St. Louis, Mo.). Roach BME (with Earle's salts) contained 5 parts Hepes (1 M), 1 part penicillin/streptomycin and 44 parts BME (with Earle's salts). ‘5+4’ medium was made fresh and sterile filtered (0.2 μm filter) just prior to use). The brains were dissociated by sequential trituration as follows: 1) brains were passed through a standard Pasteur pipette 10 times; 2) the resulting tissue suspension was passed an additional 5 times through a Pasteur pipet with tip flamed to about half of its original diameter; 3) a final 5 passes were performed using a Pasteur pipet with tip flamed to slightly less than half of its original diameter. A repeat pipettor was used to dispense a 5 μl volume of the resulting suspension into the center of each well of a 96-well, glass-bottom plate previously coated with poly-L-lysine (0.2 mg/ml solution). Cells attached to the bottom of the wells during a 50 min incubation at 27-29° C. 150 ul of a 1:1 mixture of Leibovitz's L-15 medium and Yunker's modified Grace's medium was added, and plates were maintained in a humid incubator at 27-29° C. until use. After cells were allowed to attach wells were filled with a 1:1 mixture of Leibovitz's L-15 medium and Yunker's modified Grace's medium (Leibovitz's L-15 and Grace's medium were obtained from Invitrogen Life Technologies™, Carlsbad, Calif. and Yunker's modified Grace's medium was made with Grace's medium modified by addition of 5 mg L-methionine, 10 mg L-alanine, 182 mg MgCl2.6H20, 1 g Albumin Fraction V, 7 ml Fetal bovine serum, 10 ml Chick embryo extract, 2 ml Penicillin/Streptomycin, and 2 mg 20-hydroxyecdysone (prepared in ethanol prior to addition) to a final volume of 100 ml and sterile filtered (0.2 μm filter)). Cells were maintained in a high humidity incubator at 29° C. until testing.
The calcium imaging and acquisition protocols using roach neuronal cells is as follows:
Cells were rinsed in standard physiological saline having the following composition (mM): NaCl 190; CaCl2 9; KCl 3.1; probenicid 1; Tris buffer 10; pH 7.2. Cells were then bathed in standard physiological saline containing the calcium sensitive fluoroprobe Fluo-4 AM (2 μM) and Pluronic F127 (0.002%) for 45 min. Cells were then rinsed in standard physiological saline for at least 15 min prior to testing. Within the hour prior to testing, standard physiological saline was replaced with standard physiological saline containing the organic cation channel blocker pimozide (10 μM), to inhibit influx of external calcium through voltage-gated calcium channels. The 96-well plate was placed on a Prior™ motorized stage mounted onto a Nikon Diaphot microscope and imaged using a 20× Fluor objective (NA 0.75). Individual wells from the 96-well plate were sequentially excited with light at 495 nm, and the emitted fluorescence at 530 nm was detected using a Hamamatsu ORCA ER digital camera with 2 pixel binning (image size 672×512 pixels).
Acquisition control, image processing and image analysis were conducted using Universal Imaging Corporation's MetaMorph™ imaging software (Universal Imaging, West Chester, Pa.). A series of 3 “control” images were acquired for each well. […]

[2] = test system: control cells without DNA / wild-type Sf9 cells; experiment: Calcium response in control Sf9 cells (without DNA, lipid only, non-transfected, wild type); type: cell-based, Spodoptera frugiperda
Source text: Several drops of a suspension of recombinant Spodoptera frugiperda cell line, Sf9, transiently expressing insect ryanodine receptors were placed on a poly-L-lysine-coated coverslip and allowed to attach. Cells were then rinsed in physiological saline having the following composition (mM): NaCl 130; KCl 5.4; MgCl2 1.2; CaCl2 1.0; NaHCO3 4.2; NaH2P04 7.3; Glucose 10; Sucrose 63; MES 20; pH 6.3. Cells were then bathed in physiological saline containing the calcium sensitive fluoroprobe, Fura-2 AM (2 μM), and Pluronic F127 (0.002%) for 30 min. Cells were rinsed in standard physiological saline for at least 15 min prior to testing. Testing was conducted in standard physiological saline, as the cell lines are devoid of functional voltage-gated calcium channels.
Imaging studies were conducted using a Nikon Diaphot microscope with a 40× oil immersion objective (NA 1.3) Image acquisition and processing was performed using the MetaFluor™ imaging system from Universal Imaging Corporation (West Chester, Pa.) Calcium calibration was carried out using the Grynkiewicz equation with a dissociation constant (Kd) of 145 nM for Fura-2 (Grynkiewicz et al., 1985). Cell-attached coverslips were placed in a sealed chamber with physiological saline continuously perfused across the cells using a peristaltic pump. Test compounds solubilized in physiological saline were applied by switching the perfusate source.
For studies involving the stable recombinant Spodoptera frugiperda cell line, Sf9, (other cell lines could also be used such as Sf21, S2, etc) expressing an insect ryanodine receptor from Drosophila melanogaster, or Heliothis virescens (alternatively receptors from other species such as Myzus persicae, Peregrinus maidis, Aphis gossypii, etc) were grown in T75 (or other appropriate sized) flasks in supplemented Grace's insect medium. Cells were maintained in an incubator at 22° C. until testing. Cells were suspension-loaded with the calcium sensitive fluoroprobe, Fura-2 AM (1-2 μM) and Pluronic F127 (0.002%) in culture medium for 30 minutes under agitation. Cells were then centrifuged and the pellet resuspended in physiological saline having the following composition (mM): NaCl 130; KCl 5.4; MgCl2 1.2; CaCl2 1.0; NaHCO3 4.2; NaH2P04 7.3; Glucose 10; Sucrose 63; MES 20; pH 6.3 at approximately 150,000-200,000 cells per well (96-well plate). After a 30 minute equilibration period the cell plate was tested using a Molecular Devices' FlexStation™ system with dual wavelength excitation (340 and 380 nm) and fluorescence emission measured at 510 nm. Test and control samples were added using integrated fluidics and the intracellular calcium monitored over a 2 minute period.

SMILES	Calcium Release (P. americana) ([1]; Table 6, result in words)	calcium response in control cells without DNA ([2]; caffeine 10 mM)	caffeine dose response, calcium mobilization ([2]; wild-type Sf9 cells (Sf9-WT), FlexStation, FIG. 6)	Calcium Release Threshold (nM) P. americana [1] [nM]
Cn1c(=O)c2c(ncn2C)n(C)c1=O [Caffeine, reference compound]	Agonist	No significant calcium responses	insensitive	
CNC(=O)c1cc(Cl)cc(C)c1NC(=O)c1cc(Br)nn1-c1ncccc1Cl [Cpd 14]				<300
